EP3041353B1, “COMPOSITIONS COMPRISING BACTERIOSTATIC AGENTS AND BRILLIANT BLUE G” (priority 2013, dated 2015)

What was measured:
Assay in all cases: Bacteriostatic effect of Octenidin with BBG: turbidity after 24 h incubation
Type in all cases: cell-based
Design in all cases: key: +: Bakterienwachstum nach 24 h Inkubation; -: kein Bakterienwachstum nach 24 h Inkubation
[1] = tested on: Paenibacillus sp.
Experimental: (§1) Zur Untersuchung des Einflusses von BBG auf die bakteriostatische Wirkung wurden Bakterien 24 h mit erfindungsgemäßen Zusammensetzungen, Benzalkoniumchlorid (BAK) und Octenidin (Oct) als Bakteriostatikum enthielten, inkubiert. Wenn sich die Inkubationsmischung trübte, wurde das als Bakterienwachstum interpretiert. Zum Vergleich wurde Brillantblau R (BBR) anstelle von BBG eingesetzt. Die Ergebnisse sind in den Tabellen 1-4 wiedergegeben. Tabelle 1: Einfluss von BBG und BBR auf die bakteriostatische Wirkung von BAK gegenüber Escherichia coli (E. coli), + = Bakterienwachstum nach 24 h Inkubation, - = kein Bakterienwachstum nach 24 h Inkubation, R = Brillantblau R (BBR), G = Brillantblau G (BBG).
(§2) Tabelle 4: Einfluss von BBG auf die bakteriostatische Wirkung von Octenidin (Oct) gegenüber Gram-positiven Bakterien., + = Bakterienwachstum nach 24 h Inkubation, - = kein Bakterienwachstum nach 24 h Inkubation, +/- = geringes Wachstum nach 24 h Inkubation, BBG = Brillantblau G.

[2] = tested on: Bacillus subtilis
Experimental: as §1, §2

[3] = tested on: Escherichia coli DH5α
Experimental: as §1
(§3) Gram-negative Bakterien (hier E. coli) sind widerstandsfähiger als Gram-positive Bakterien (hier Bacillus sp.) und wachsen konzentrationsabhängig. […] Tabelle 3: Einfluss von BBG auf die bakteriostatische Wirkung von Octenidin (Oct) gegenüber Gram-negativen Bakterien., + = Bakterienwachstum nach 24 h Inkubation, - = kein Bakterienwachstum nach 24 h Inkubation, BBG = Brillantblau G.

[4] = tested on: Vibrio sp. Gal12
Experimental: as §1, §3

[5] = tested on: Pseudomonas putida DSM 291
Experimental: as §1, §3

CCOc1ccc(Nc2ccc(C(=C3C=CC(=[N+](CC)Cc4cccc(S(=O)(=O)[O-])c4)C=C3C)c3ccc(N(CC)Cc4cccc(S(=O)(=O)O)c4)cc3C)cc2)cc1 [BBG, Brillantblau G]
Bakterienwachstum nach 24 h Inkubation ([1]; 0,007% BBG + Octenidin 0,01%): -
Bakterienwachstum nach 24 h Inkubation ([1]; 0,007% BBG + Octenidin 0,002%): -
Bakterienwachstum nach 24 h Inkubation ([1]; 0,007% BBG + Octenidin 0,003%): -
Bakterienwachstum nach 24 h Inkubation ([1]; 0,007% BBG + Octenidin 0,005%): -
Bakterienwachstum nach 24 h Inkubation ([1]; 0,007% BBG + Octenidin 0,007%): -
Bakterienwachstum nach 24 h Inkubation ([1]; 0,007% BBG + Octenidin 0,009%): -
Bakterienwachstum nach 24 h Inkubation ([1]; 0,007% BBG, Octenidin 0%): +
Bakterienwachstum nach 24 h Inkubation ([1]; 0,015% BBG + Octenidin 0,01%): -
Bakterienwachstum nach 24 h Inkubation ([1]; 0,015% BBG + Octenidin 0,002%): +
Bakterienwachstum nach 24 h Inkubation ([1]; 0,015% BBG + Octenidin 0,003%): +
Bakterienwachstum nach 24 h Inkubation ([1]; 0,015% BBG + Octenidin 0,005%): -
Bakterienwachstum nach 24 h Inkubation ([1]; 0,015% BBG + Octenidin 0,007%): -
Bakterienwachstum nach 24 h Inkubation ([1]; 0,015% BBG + Octenidin 0,009%): -
Bakterienwachstum nach 24 h Inkubation ([1]; 0,015% BBG, Octenidin 0%): +
Bakterienwachstum nach 24 h Inkubation ([1]; 0,030% BBG + Octenidin 0,01%): -
Bakterienwachstum nach 24 h Inkubation ([1]; 0,030% BBG + Octenidin 0,002%): +
Bakterienwachstum nach 24 h Inkubation ([1]; 0,030% BBG + Octenidin 0,003%): +
Bakterienwachstum nach 24 h Inkubation ([1]; 0,030% BBG + Octenidin 0,005%): +
Bakterienwachstum nach 24 h Inkubation ([1]; 0,030% BBG + Octenidin 0,007%): +
Bakterienwachstum nach 24 h Inkubation ([1]; 0,030% BBG + Octenidin 0,009%): +
Bakterienwachstum nach 24 h Inkubation ([1]; 0,030% BBG, Octenidin 0%): +
Bakterienwachstum nach 24 h Inkubation ([2]; 0,007% BBG + Octenidin 0,01%): -
Bakterienwachstum nach 24 h Inkubation ([2]; 0,007% BBG + Octenidin 0,002%): +
Bakterienwachstum nach 24 h Inkubation ([2]; 0,007% BBG + Octenidin 0,003%): -
Bakterienwachstum nach 24 h Inkubation ([2]; 0,007% BBG + Octenidin 0,005%): -
Bakterienwachstum nach 24 h Inkubation ([2]; 0,007% BBG + Octenidin 0,007%): -
Bakterienwachstum nach 24 h Inkubation ([2]; 0,007% BBG + Octenidin 0,009%): -
Bakterienwachstum nach 24 h Inkubation ([2]; 0,007% BBG, Octenidin 0%): +
Bakterienwachstum nach 24 h Inkubation ([2]; 0,015% BBG + Octenidin 0,01%): -
Bakterienwachstum nach 24 h Inkubation ([2]; 0,015% BBG + Octenidin 0,002%): +
Bakterienwachstum nach 24 h Inkubation ([2]; 0,015% BBG + Octenidin 0,003%): +
Bakterienwachstum nach 24 h Inkubation ([2]; 0,015% BBG + Octenidin 0,005%): -
Bakterienwachstum nach 24 h Inkubation ([2]; 0,015% BBG + Octenidin 0,007%): -
Bakterienwachstum nach 24 h Inkubation ([2]; 0,015% BBG + Octenidin 0,009%): -
Bakterienwachstum nach 24 h Inkubation ([2]; 0,015% BBG, Octenidin 0%): +
Bakterienwachstum nach 24 h Inkubation ([2]; 0,030% BBG + Octenidin 0,01%): -
Bakterienwachstum nach 24 h Inkubation ([2]; 0,030% BBG + Octenidin 0,002%): +
Bakterienwachstum nach 24 h Inkubation ([2]; 0,030% BBG + Octenidin 0,003%): +
Bakterienwachstum nach 24 h Inkubation ([2]; 0,030% BBG + Octenidin 0,005%): +
Bakterienwachstum nach 24 h Inkubation ([2]; 0,030% BBG + Octenidin 0,007%): +
Bakterienwachstum nach 24 h Inkubation ([2]; 0,030% BBG + Octenidin 0,009%): -
Bakterienwachstum nach 24 h Inkubation ([2]; 0,030% BBG, Octenidin 0%): +
Bakterienwachstum nach 24 h Inkubation ([3]; 0,007% BBG + Octenidin 0,01%): -
Bakterienwachstum nach 24 h Inkubation ([3]; 0,007% BBG + Octenidin 0,002%): +
Bakterienwachstum nach 24 h Inkubation ([3]; 0,007% BBG + Octenidin 0,003%): -
Bakterienwachstum nach 24 h Inkubation ([3]; 0,007% BBG + Octenidin 0,005%): -
Bakterienwachstum nach 24 h Inkubation ([3]; 0,007% BBG + Octenidin 0,007%): -
Bakterienwachstum nach 24 h Inkubation ([3]; 0,007% BBG + Octenidin 0,009%): -
Bakterienwachstum nach 24 h Inkubation ([3]; 0,007% BBG, Octenidin 0%): +
Bakterienwachstum nach 24 h Inkubation ([3]; 0,015% BBG + Octenidin 0,01%): -
Bakterienwachstum nach 24 h Inkubation ([3]; 0,015% BBG + Octenidin 0,002%): +
Bakterienwachstum nach 24 h Inkubation ([3]; 0,015% BBG + Octenidin 0,003%): +
Bakterienwachstum nach 24 h Inkubation ([3]; 0,015% BBG + Octenidin 0,005%): +
Bakterienwachstum nach 24 h Inkubation ([3]; 0,015% BBG + Octenidin 0,007%): -
Bakterienwachstum nach 24 h Inkubation ([3]; 0,015% BBG + Octenidin 0,009%): -
Bakterienwachstum nach 24 h Inkubation ([3]; 0,015% BBG, Octenidin 0%): +
Bakterienwachstum nach 24 h Inkubation ([3]; 0,030% BBG + Octenidin 0,01%): +
Bakterienwachstum nach 24 h Inkubation ([3]; 0,030% BBG + Octenidin 0,002%): +
Bakterienwachstum nach 24 h Inkubation ([3]; 0,030% BBG + Octenidin 0,003%): +
Bakterienwachstum nach 24 h Inkubation ([3]; 0,030% BBG + Octenidin 0,005%): +
Bakterienwachstum nach 24 h Inkubation ([3]; 0,030% BBG + Octenidin 0,007%): +
Bakterienwachstum nach 24 h Inkubation ([3]; 0,030% BBG + Octenidin 0,009%): +
Bakterienwachstum nach 24 h Inkubation ([3]; 0,030% BBG, Octenidin 0%): +
Bakterienwachstum nach 24 h Inkubation ([4]; 0,007% BBG + Octenidin 0,01%): -
Bakterienwachstum nach 24 h Inkubation ([4]; 0,007% BBG + Octenidin 0,002%): +
Bakterienwachstum nach 24 h Inkubation ([4]; 0,007% BBG + Octenidin 0,003%): -
Bakterienwachstum nach 24 h Inkubation ([4]; 0,007% BBG + Octenidin 0,005%): -
Bakterienwachstum nach 24 h Inkubation ([4]; 0,007% BBG + Octenidin 0,007%): -
Bakterienwachstum nach 24 h Inkubation ([4]; 0,007% BBG + Octenidin 0,009%): -
Bakterienwachstum nach 24 h Inkubation ([4]; 0,007% BBG, Octenidin 0%): +
Bakterienwachstum nach 24 h Inkubation ([4]; 0,015% BBG + Octenidin 0,01%): -
Bakterienwachstum nach 24 h Inkubation ([4]; 0,015% BBG + Octenidin 0,002%): +
Bakterienwachstum nach 24 h Inkubation ([4]; 0,015% BBG + Octenidin 0,003%): +
Bakterienwachstum nach 24 h Inkubation ([4]; 0,015% BBG + Octenidin 0,005%): +
Bakterienwachstum nach 24 h Inkubation ([4]; 0,015% BBG + Octenidin 0,007%): -
Bakterienwachstum nach 24 h Inkubation ([4]; 0,015% BBG + Octenidin 0,009%): -
Bakterienwachstum nach 24 h Inkubation ([4]; 0,015% BBG, Octenidin 0%): +
Bakterienwachstum nach 24 h Inkubation ([4]; 0,030% BBG + Octenidin 0,01%): +
Bakterienwachstum nach 24 h Inkubation ([4]; 0,030% BBG + Octenidin 0,002%): +
Bakterienwachstum nach 24 h Inkubation ([4]; 0,030% BBG + Octenidin 0,003%): +
Bakterienwachstum nach 24 h Inkubation ([4]; 0,030% BBG + Octenidin 0,005%): +
Bakterienwachstum nach 24 h Inkubation ([4]; 0,030% BBG + Octenidin 0,007%): +
Bakterienwachstum nach 24 h Inkubation ([4]; 0,030% BBG + Octenidin 0,009%): +
Bakterienwachstum nach 24 h Inkubation ([4]; 0,030% BBG, Octenidin 0%): +
Bakterienwachstum nach 24 h Inkubation ([5]; 0,007% BBG + Octenidin 0,01%): -
Bakterienwachstum nach 24 h Inkubation ([5]; 0,007% BBG + Octenidin 0,002%): +
Bakterienwachstum nach 24 h Inkubation ([5]; 0,007% BBG + Octenidin 0,003%): -
Bakterienwachstum nach 24 h Inkubation ([5]; 0,007% BBG + Octenidin 0,005%): -
Bakterienwachstum nach 24 h Inkubation ([5]; 0,007% BBG + Octenidin 0,007%): -
Bakterienwachstum nach 24 h Inkubation ([5]; 0,007% BBG + Octenidin 0,009%): -
Bakterienwachstum nach 24 h Inkubation ([5]; 0,007% BBG, Octenidin 0%): +
Bakterienwachstum nach 24 h Inkubation ([5]; 0,015% BBG + Octenidin 0,01%): -
Bakterienwachstum nach 24 h Inkubation ([5]; 0,015% BBG + Octenidin 0,002%): +
Bakterienwachstum nach 24 h Inkubation ([5]; 0,015% BBG + Octenidin 0,003%): +
Bakterienwachstum nach 24 h Inkubation ([5]; 0,015% BBG + Octenidin 0,005%): +
Bakterienwachstum nach 24 h Inkubation ([5]; 0,015% BBG + Octenidin 0,007%): -
Bakterienwachstum nach 24 h Inkubation ([5]; 0,015% BBG + Octenidin 0,009%): -
Bakterienwachstum nach 24 h Inkubation ([5]; 0,015% BBG, Octenidin 0%): +
Bakterienwachstum nach 24 h Inkubation ([5]; 0,030% BBG + Octenidin 0,01%): +
Bakterienwachstum nach 24 h Inkubation ([5]; 0,030% BBG + Octenidin 0,002%): +
Bakterienwachstum nach 24 h Inkubation ([5]; 0,030% BBG + Octenidin 0,003%): +
Bakterienwachstum nach 24 h Inkubation ([5]; 0,030% BBG + Octenidin 0,005%): +
Bakterienwachstum nach 24 h Inkubation ([5]; 0,030% BBG + Octenidin 0,007%): +
Bakterienwachstum nach 24 h Inkubation ([5]; 0,030% BBG + Octenidin 0,009%): +
Bakterienwachstum nach 24 h Inkubation ([5]; 0,030% BBG, Octenidin 0%): +
